One assay relates to PBMCs. Briefly: Cell migration (chemotaxis) assay, PBMC counts. The following applies: 10 μM; MSU crystal conditioned media; FIG. 1B. Type of assay: cell-based. As for the experimental part:
Primary blood monocytes (PMBC) were obtained from the lymphocyte layer (buffy coat) of peripheral blood from normal donors. Each leukopack (Interstate Blood Bank) was diluted with an equal volume of PBS, and 35 mL of blood preparation was over-laid onto 15 mL of Ficoll-Paque™ PLUS (GE Healthcare Bio-Sciences). Tubes were centrifuged at 700×g without breaks for 30 minutes at room temperature. The buffy coat interface was removed, added to PBS (40 mL), and centrifuged at 300×g. Any remaining erythrocytes in the cell pellet were lysed by incubating cells in red blood cell lysis buffer (10 mL, R&D Systems) for 10 minutes at room temperature. Following lysis, PBS (40 mL) was added and the cells centrifuged for 5 minutes at 200×g. The pellet was washed once with PBS and re-suspended in complete RPMI and seeded onto a BD Falcon™ 100 mm tissue culture dish (Cat. No. 353003). After one hour, the media was aspirated and the adherent cells (predominantly monocytes) were harvested using a cell scraper and used in chemotaxis assays. Chemotaxis was assayed in 48-well plates with BD Falcon FluoroBlok Multiwell inserts with 3 μm pores (Cat. No. 351161 or 351162) coated with hFN. […] Fluorescence emitted from cells that had migrated to the bottom surface of the insert was measured at various time points. Cells labeled with Calcein AM were read at 485/530 nm (Ex/Em) wavelength. […]

In another assay the test system is neutrophils. Briefly: Cell migration (chemotaxis) assay, neutrophil counts. Type of assay: cell-based. The following applies: 10 μM; MSU-conditioned media; FIG. 1A.
A further assay deals with T1, CXCR-2 (Homo sapiens, UniProt P25025).
T1 sequence (P25025 1-360): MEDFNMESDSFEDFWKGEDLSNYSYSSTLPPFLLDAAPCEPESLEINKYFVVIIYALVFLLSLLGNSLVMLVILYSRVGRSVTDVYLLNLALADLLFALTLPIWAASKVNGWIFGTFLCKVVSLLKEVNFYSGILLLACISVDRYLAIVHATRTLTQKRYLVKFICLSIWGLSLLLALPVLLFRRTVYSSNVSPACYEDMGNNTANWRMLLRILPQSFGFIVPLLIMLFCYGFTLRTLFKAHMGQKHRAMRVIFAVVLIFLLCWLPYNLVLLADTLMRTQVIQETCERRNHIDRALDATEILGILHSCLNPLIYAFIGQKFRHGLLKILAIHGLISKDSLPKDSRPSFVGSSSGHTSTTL
The conditions noted are these: cited from earlier work.

On to `O=C(Nc1ccc(Cl)c(S(=O)(=O)N2CCNCC2)c1O)Nc1cccc(F)c1Cl` [Compound 1, 1-(4-chloro-2-hydroxy-3-(piperazin-1-ylsulfonyl)phenyl)-3-(2-chloro-3-fluorophenyl)urea], for which, in the assay on PBMCs, the “inhibition in migration in PBMCs” value is “significant inhibition in migration”. In addition, in the assay with neutrophils, the “inhibition of migration in neutrophils” value is “significant inhibition of migration”. Further, the “inhibit CXCR-2” value at CXCR-2 is reported as “shown to inhibit CXCR-2”.

(Values after patent publication US10772886B2, “CXCR-2 inhibitors for treating crystal arthropathy disorders” (ARDEA BIOSCIENCES, INC., priority 2016, dated 2020).)
